≈ marks a conversion by molar mass, not a printed value. Read-outs that look alike come from different tables or passages of the source.
Columns and labels:
[1] = system: P. aeruginosa (strain WC-452); experiment: 21-day serial passage resistance assay; type: cell-based, Pseudomonas aeruginosa; details: CAA broth, over 18 days of serial passage
Experimental: The well with the highest concentration of GN lysin in which bacterial growth was seen was then used as the inoculum for the next day's passage, and the process was repeated over a 21 day period. The MIC at each daily time-point was recorded, and resistance was measured as a step-wise increase in MIC.

[2] = system: P. aeruginosa; experiment: MIC by modified CLSI broth microdilution in CAA media, CAA with human serum or with Survanta; type: cell-based; details: Pseudomonas aeruginosa
Excerpt: 2015. […] Clinical and Laboratory Standards Institute, Wayne, Pa.

[3] = system: carbapenem-resistant P. aeruginosa strains; experiment: microbe, parasite or virus in culture; type: cell-based, Pseudomonas aeruginosa; details: for MIC: Pseudomonas aeruginosa; for MIC Combination / MIC Alone: vs. WC-452
Experimental: Such resensitization may be determined by combining the present lysins or lysin-AMP polypeptide constructs with an antibiotic in a checkerboard assay as described herein. Antibiotic-resistant bacteria, such as carbapenem-resistant P. aeruginosa, are added to the lysin or lysin-AMP polypeptide construct combination. […] See Clinical and Laboratory Standards Institute (CLSI), CLSI. […] M100 Performance Standards for Antimicrobial Susceptibility Testing; 29th Edition. Clinical and Laboratory Standards Institute, Wayne, Pa., which is herein incorporated by reference in its entirety.
Up to seven carbapenem-resistant isolates were assessed. […] See Clinical and Laboratory Standards Institute (CLSI), CLSI. […] M100 Performance Standards for Antimicrobial Susceptibility Testing; 29th Edition. Clinical and Laboratory Standards Institute, Wayne, Pa.

O=C(O)c1cn(C2CC2)c2cc(N3CCNCC3)c(F)cc2c1=O [Ciprofloxacin]
increase of MIC during serial passage [1]: 16 fold

C[C@@H](O)[C@H]1C(=O)N2C(C(=O)O)=C(S[C@@H]3CN[C@H](C(=O)N(C)C)C3)[C@H](C)[C@H]12 [Meropenem, meropenem]
MIC ([2]; ATCC17646, read-out: Meropenem MIC (μg/mL), strain CFS 1109 (ATCC 17646)): 0.5 µg/mL (≈ 1.3 µM) | MIC ([2]; ATCC27853, read-out: Meropenem MIC (μg/mL), strain CFS 1766 (ATCC 27853)): 1 µg/mL (≈ 2.61 µM) | MIC ([2]; PA1, read-out: Meropenem MIC (μg/mL), strain CFS 1539 (PA1)): 16 µg/mL (≈ 41.7 µM) | MIC ([2]; read-out: Meropenem MIC (μg/mL), […]): > 32 µg/mL | MIC ([2]; read-out: Meropenem MIC (μg/mL), strain CFS 1541 (PA3)): 8 µg/mL (≈ 20.9 µM) | MIC ([2]; read-out: Meropenem MIC (μg/mL), strain CFS 1596 (PA26)): 0.5 µg/mL (≈ 1.3 µM) | MIC ([2]; read-out: Meropenem MIC (μg/mL), strain CFS 1597 (PA27)): 1 µg/mL (≈ 2.61 µM) | MIC ([2]; read-out: Meropenem MIC (μg/mL), strain CFS 1669 (PA41)): < 0.25 µg/mL | MIC ([2]; read-out: Meropenem MIC (μg/mL), strain CFS 1674 (PA46)): 4 µg/mL (≈ 10.4 µM) | MIC ([2]; read-out: Meropenem MIC (μg/mL), strain CFS 1675 (PA47)): 4 µg/mL (≈ 10.4 µM) | MIC ([3]; GN121, read-out: MIC (μg/mL) Alone, isolate PA19, checkerboard Meropenem + GN121): 32 µg/mL | MIC ([3]; GN121, read-out: MIC (μg/mL) Alone, isolate PA20, checkerboard Meropenem + GN121): 16 µg/mL | MIC ([3]; GN121, read-out: MIC (μg/mL) Alone, isolate PA21, checkerboard Meropenem + GN121): 32 µg/mL | MIC ([3]; GN121, read-out: MIC (μg/mL) Alone, isolate PA22, checkerboard Meropenem + GN121): 16 µg/mL | MIC ([3]; GN121, read-out: MIC (μg/mL) Alone, isolate PA23, checkerboard Meropenem + GN121): 16 µg/mL | MIC ([3]; GN121, read-out: MIC (μg/mL) Alone, isolate PA24, checkerboard Meropenem + GN121): 32 µg/mL | MIC ([3]; GN121, read-out: MIC (μg/mL) Alone, isolate WC-452, checkerboard Meropenem + GN121): 16 µg/mL | MIC ([3]; GN123, read-out: MIC (μg/mL) Alone, isolate PA19, checkerboard MEROPENEM + GN123): 32 µg/mL | MIC ([3]; GN123, read-out: MIC (μg/mL) Alone, isolate PA20, checkerboard MEROPENEM + GN123): 16 µg/mL | MIC ([3]; GN123, read-out: MIC (μg/mL) Alone, isolate PA21, checkerboard MEROPENEM + GN123): 32 µg/mL | MIC ([3]; GN123, read-out: MIC (μg/mL) Alone, isolate PA22, checkerboard MEROPENEM + GN123): 16 µg/mL | MIC ([3]; GN123, read-out: MIC (μg/mL) Alone, isolate PA23, checkerboard MEROPENEM + GN123): 16 µg/mL | MIC ([3]; GN123, read-out: MIC (μg/mL) Alone, isolate PA24, checkerboard MEROPENEM + GN123): 32 µg/mL | MIC ([3]; GN123, read-out: MIC (μg/mL) Alone, isolate WC-452, checkerboard MEROPENEM + GN123): 16 µg/mL | susceptibility category of the isolate, carbapenem Alone ([3]; isolate PA19): (R) ((R) = resistant) | MIC (μg/mL) Combination ([3]; isolate PA19, MEROPENEM combined with GN123): 0.5 µg/mL | MIC (μg/mL) Combination ([3]; isolate PA19, Meropenem combined with GN121): 1 µg/mL | susceptibility category of the isolate, carbapenem in Combination ([3]; isolate PA19, combined with GN123): (S) ((S) = sensitive) | susceptibility category of the isolate, carbapenem Alone ([3]; isolate PA20): (R) ((R) = resistant) | MIC (μg/mL) Combination ([3]; isolate PA20, MEROPENEM combined with GN123): 0.5 µg/mL | MIC (μg/mL) Combination ([3]; isolate PA20, Meropenem combined with GN121): 1 µg/mL | susceptibility category of the isolate, carbapenem in Combination ([3]; isolate PA20, combined with GN123): (S) ((S) = sensitive) | susceptibility category of the isolate, carbapenem Alone ([3]; isolate PA21): (R) ((R) = resistant) | MIC (μg/mL) Combination ([3]; isolate PA21, MEROPENEM combined with GN123): 1 µg/mL | MIC (μg/mL) Combination ([3]; isolate PA21, Meropenem combined with GN121): 2 µg/mL | susceptibility category of the isolate, carbapenem in Combination ([3]; isolate PA21, combined with GN123): (S) ((S) = sensitive) | susceptibility category of the isolate, carbapenem Alone ([3]; isolate PA22): (R) ((R) = resistant) | MIC (μg/mL) Combination ([3]; isolate PA22, MEROPENEM combined with GN123): 1 µg/mL | MIC (μg/mL) Combination ([3]; isolate PA22, Meropenem combined with GN121): 1 µg/mL | susceptibility category of the isolate, carbapenem in Combination ([3]; isolate PA22, combined with GN123): (S) ((S) = sensitive) | susceptibility category of the isolate, carbapenem Alone ([3]; isolate PA23): (R) ((R) = resistant) | MIC (μg/mL) Combination ([3]; isolate PA23, MEROPENEM combined with GN123): 0.5 µg/mL | MIC (μg/mL) Combination ([3]; isolate PA23, Meropenem combined with GN121): 2 µg/mL | susceptibility category of the isolate, carbapenem in Combination ([3]; isolate PA23, combined with GN123): (S) ((S) = sensitive) | susceptibility category of the isolate, carbapenem Alone ([3]; isolate PA24): (R) ((R) = resistant) | MIC (μg/mL) Combination ([3]; isolate PA24, MEROPENEM combined with GN123): 2 µg/mL | MIC (μg/mL) Combination ([3]; isolate PA24, Meropenem combined with GN121): 1 µg/mL | susceptibility category of the isolate, carbapenem in Combination ([3]; isolate PA24, combined with GN123): (S) ((S) = sensitive) | susceptibility category of the isolate, carbapenem Alone ([3]; isolate WC-452): (R) ((R) = resistant) | MIC (μg/mL) Combination ([3]; isolate WC-452, MEROPENEM combined with GN123): 1 µg/mL | MIC (μg/mL) Combination ([3]; isolate WC-452, Meropenem combined with GN121): 1 µg/mL | susceptibility category of the isolate, carbapenem in Combination ([3]; isolate WC-452, combined with GN123): (S) ((S) = sensitive) | susceptibility category of the isolate, carbapenem in Combination ([3]; isolate WC-452, combined with GN351): (S) ((S) = sensitive) | susceptibility category of the isolate, carbapenem in Combination ([3]; isolate WC-452, combined with GN370): (S) ((S) = sensitive) | susceptibility category of the isolate, carbapenem in Combination ([3]; isolate WC-452, combined with GN428): (S) ((S) = sensitive) | MIC Combination ([3]; MEM combined with GN351): 1 µg/mL | MIC Combination ([3]; MEM combined with GN370): 0.5 µg/mL | MIC Combination ([3]; MEM combined with GN428): 1 µg/mL | MIC Alone ([3]; checkerboard MEM + GN351): 16 µg/mL | MIC Alone ([3]; checkerboard MEM + GN428): 16 µg/mL
